In brackets after ≈: the same amount, converted by molar mass. Activity calls are given as the source filed them. The calls are words filed in the database; no cut-off is given here.
Columns and labels:
HCT-116 [1] = experiment: Induction of cell cycle arrest in human HCT-116 cells assessed as accumulation at G2/M phase at 0.05 uM incubated for 48 hrs by flow cytometry (reference value: 32.63%); format: functional
HCT-116 [2] = experiment: Induction of cell cycle arrest in human HCT-116 cells assessed as accumulation at S phase at 0.05 uM incubated for 48 hrs by flow cytometry (reference value: 34.21%); format: functional
MCF7 = experiment: In-vitro antitumor activity against human MCF7 cells incubated for 72 hrs by CCK8 assay; format: functional, cell-based; conditions: MCF7, 72 h
HCT-116 [3] = experiment: Induction of apoptosis in human HCT-116 cells at 0.1 uM incubated for 48 hrs by Annexin V/PI staining based flow cytometry (reference value: 3.86%); format: functional
HCT-116 [4] = experiment: Induction of cell cycle arrest in human HCT-116 cells assessed as accumulation at G1 phase at 0.25 uM incubated for 48 hrs by flow cytometry (reference value: 33.16%); format: functional
HCT-116 [5] = experiment: In-vitro antitumor activity against human HCT-116 cells incubated for 72 hrs by CCK8 assay; format: functional, cell-based; conditions: HCT-116, 72 h
HCT-116 [6] = experiment: Induction of cell cycle arrest in human HCT-116 cells assessed as accumulation at G1 phase at 0.01 uM incubated for 48 hrs by flow cytometry (reference value: 33.16%); format: functional
HCT-116 [7] = experiment: Induction of apoptosis in human HCT-116 cells at 0.05 uM incubated for 48 hrs by Annexin V/PI staining based flow cytometry (reference value: 3.86%); format: functional
HCT-116 [8] = experiment: Induction of cell cycle arrest in human HCT-116 cells assessed as accumulation at S phase at 0.25 uM incubated for 48 hrs by flow cytometry (reference value: 34.21%); format: functional
HCT-116 [9] = experiment: Inhibition of cell migration of human HCT-116 cells at 0.01 to 0.15 uM incubated for 24 hrs by wound healing assay; format: functional, cell-based; conditions: dose 0.01-0.15 µM
HCT-116 [10] = experiment: Induction of cell cycle arrest in human HCT-116 cells assessed as accumulation at G1 phase at 0.05 uM incubated for 48 hrs by flow cytometry (reference value: 33.16%); format: functional
[11] = In-vitro cytotoxic activity against human HUVEC cells incubated for 72 hrs by CCK8 assay; format: toxicity, cell-based
HCT-116 [12] = experiment: Induction of apoptosis in human HCT-116 cells at 0.25 uM incubated for 48 hrs by Annexin V/PI staining based flow cytometry (reference value: 3.86%); format: functional
HCT-116 [13] = experiment: Induction of cell cycle arrest in human HCT-116 cells assessed as accumulation at G2/M phase at 0.01 uM incubated for 48 hrs by flow cytometry (reference value: 32.63%); format: functional
HCT-116 [14] = experiment: Induction of cell cycle arrest in human HCT-116 cells assessed as accumulation at S phase at 0.01 uM incubated for 48 hrs by flow cytometry (reference value: 34.21%); format: functional
HCT-116 [15] = experiment: Induction of cell cycle arrest in human HCT-116 cells assessed as accumulation at G2/M phase at 0.25 uM incubated for 48 hrs by flow cytometry (reference value: 32.63%); format: functional
HCT-116 [16] = experiment: Inhibition of cell colony formation of human HCT-116 cells at 0.025 to 0.5 uM by clonogenicity assay; format: functional, cell-based; conditions: dose 0.025-0.5 µM
HCT-116 [17] = experiment: Induction of cell cycle arrest in human HCT-116 cells assessed as reduction in Cdc25c expression at 0.05 to 1.5 uM incubated for 24 hrs by Western blot analysis; format: functional, cell-based; conditions: dose 0.05-1.5 µM
HCT-116 [18] = experiment: Inhibition of cell proliferation of human HCT-116 cells at 0.01 to 10 uM incubated for 48 hrs by RTCA assay; format: functional; conditions: dose 0.01-10 µM
HCT-116 [19] = experiment: Induction of apoptosis in human HCT-116 cells assessed as increase in Bax protein expression at 0.05 to 1.5 uM incubated for 24 hrs by Western blot analysis; format: functional, cell-based; conditions: dose 0.05-1.5 µM
HCT-116 [20] = experiment: Induction of apoptosis in human HCT-116 cells assessed as reduction in cytochrome C protein expression at 1.5 uM incubated for 24 hrs by Western blot analysis; format: functional, cell-based
HCT-116 [21] = experiment: Induction of cell cycle arrest in human HCT-116 cells assessed as increase in Cyclin B1 expression at 0.05 to 1.5 uM incubated for 24 hrs by Western blot analysis; format: functional, cell-based; conditions: dose 0.05-1.5 µM
HCT-116 [22] = experiment: Induction of apoptosis in human HCT-116 cells assessed as decrease in Bcl-2 protein expression at 0.05 to 1.5 uM incubated for 24 hrs by Western blot analysis; format: functional, cell-based; conditions: dose 0.05-1.5 µM
A549 = experiment: In-vitro antitumor activity against human A549 cells incubated for 72 hrs by CCK8 assay; format: functional, cell-based; conditions: A549, 72 h
HCT-116 [23] = experiment: Induction of apoptosis in human HCT-116 cells assessed as increase in p53 protein expression at 0.05 to 1.5 uM incubated for 24 hrs by Western blot analysis; format: functional, cell-based; conditions: dose 0.05-1.5 µM
HCT-116 [24] = experiment: Induction of apoptosis in human HCT-116 cells assessed as reduction in p53 protein expression at 1.5 uM incubated for 24 hrs by Western blot analysis; format: functional, cell-based
HCT-116 [25] = experiment: Induction of apoptosis in human HCT-116 cells at 0.15 uM incubated for 48 hrs by Annexin V/PI staining based flow cytometry (reference value: 3.86%); format: functional
HCT-116 [26] = experiment: Induction of apoptosis in human HCT-116 cells assessed as increase in cytochrome C protein expression at 0.05 to 1.5 uM incubated for 24 hrs by Western blot analysis; format: functional, cell-based; conditions: dose 0.05-1.5 µM
HCT-116 [27] = experiment: Induction of apoptosis in human HCT-116 cells at 0.05 to 0.25 uM incubated for 48 hrs by Annexin V/PI staining based flow cytometry; format: functional, cell-based; conditions: dose 0.05-0.25 µM, DDE = dose-dependent effect
HCT-116 [28] = experiment: Inhibition of cell migration of human HCT-116 cells at 0.25 uM incubated for 24 hrs by wound healing assay; format: functional, cell-based

CN1c2ccc(F)cc2C(=O)N2CCc3c([nH]c4ccc(OC(=O)CCCC(=O)Oc5ccc6[nH]c7c(c6c5)CCN5C(=O)c6cc(F)ccc6N(C)C75)cc34)C21 (configuration not stated)
Activity (HCT-116 [1]): 59.8% | Activity (HCT-116 [2]): 0% | IC50 (MCF7): 200 nM | Activity (HCT-116 [3]): 54.32% | Activity (HCT-116 [4]): 34.77% | IC50 (HCT-116 [5]): 32 nM | Activity (HCT-116 [6]): 42.61% | Activity (HCT-116 [7]): 47.78% | Activity (HCT-116 [8]): 0% | inhibition (HCT-116 [9]): Active | Activity (HCT-116 [10]): 40.2% | IC50 at 72 h [11]: 580 nM | Activity (HCT-116 [12]): 75.11% | Activity (HCT-116 [13]): 30.43% | Activity (HCT-116 [14]): 26.96% | Activity (HCT-116 [15]): 65.23% | inhibition (HCT-116 [16]): Active | Activity (HCT-116 [17]): Active | MIC (HCT-116 [18]): 0.01 µM (≈ 7.71 ng/mL) | inhibition (HCT-116 [18]; DDE = dose-dependent effect): Dde | Activity (HCT-116 [19]): Active | Activity (HCT-116 [20]): Active | Activity (HCT-116 [21]): Active | Activity (HCT-116 [22]): Active | IC50 (A549): 730 nM | Activity (HCT-116 [23]): Active | Activity (HCT-116 [24]): Active | Activity (HCT-116 [25]): 58.73% | Activity (HCT-116 [26]): Active | Activity (HCT-116 [27]): Dde

CC[C@@]1(O)C(=O)OCc2c1cc1n(c2=O)Cc2cc3ccccc3nc2-1 [CAMPTOTHECIN]
IC50 (MCF7): 21 nM | IC50 (HCT-116 [5]): 40 nM | IC50 at 72 h [11]: 12 nM | IC50 (A549): 74 nM

CN1c2ccc(F)cc2C(=O)N2CCc3c([nH]c4ccc(OC(=O)CCSSCCC(=O)Oc5ccc6[nH]c7c(c6c5)CCN5C(=O)c6cc(F)ccc6N(C)C75)cc34)C21 (configuration not stated)
IC50 (MCF7): 410 nM | IC50 (HCT-116 [5]): 170 nM | IC50 at 72 h [11]: 130 nM | IC50 (A549): 610 nM

CN1c2ccc(F)cc2C(=O)N2CCc3c([nH]c4ccc(O)cc34)C21 (configuration not stated)
IC50 (MCF7): 44 nM | IC50 (HCT-116 [5]): 73 nM | IC50 at 72 h [11]: 260 nM | inhibition (HCT-116 [28]): Active | IC50 (A549): 460 nM

CN1c2ccc(F)cc2C(=O)N2CCc3c([nH]c4ccc(OC(=O)CCC(=O)Oc5ccc6[nH]c7c(c6c5)CCN5C(=O)c6cc(F)ccc6N(C)C75)cc34)C21 (configuration not stated)
IC50 (MCF7): 890 nM | IC50 (HCT-116 [5]): 32 nM | IC50 at 72 h [11]: 210 nM | IC50 (A549): 680 nM
